How the values were obtained:
VEGF-stimulated HUVEC = VEGF-stimulated HUVEC proliferation assay (BrdU); format: cell-based; conditions: Homo sapiens, VEGF 20 ng per mL, BrdU labeling, 24 hour exposure, read-out: IC50 (μM) of VEGF and FGF-Stimulated HUVEC Proliferation Assays HUVEC/VEFG
Protocol: The antiproliferative activity of test compounds of this invention in cell-based assays was evaluated by BrdU assay using the BrdU kit (Roche Biochemicals 1-647-229). Human umbilical vein endothelial cells (HUVEC, Clonetics CC-2519) were cultured in EGM-2 (Clonetics CC-3162) medium and seeded at 10000 cells per well in a volume of 200 μL of EGM-2 (Clonetics CC-3162) media in a 96-well flat bottom plates (Costar 3595) overnight. After 24 hours of growth at 37° C. with 5% CO2, the incubation media was removed slowly by aspiration and the content of each well was washed with 300 μL pre-warmed EBM-2 (Clonetics CC-3156) containing 50 μg per mL of gentamycin and 50 ng per mL of amphotercin-B (Clonetics CC-4083). Subsequently, the remaining media was again aspirated and replaced with 160 μL per well of serum starvation media (EBM-2 supplemented with 1% heat inactivated FBS (Clonetics CC-4102), 50 μg per mL gentamycin and 50 ng per mL of amphotercin-B (Clonetics CC-4083), 10 units per mL of Wyeth-Ayerst heparin (NDC0641-0391-25), and 2 mM L-glutamine (GIBCO 25030-081). After serum starving the cells for 24 hours, 20 μL of test compound at 10× test concentration in serum starvation medium with 2.5% DMSO was added to the appropriate wells. The control wells contained 20 μL of serum starvation medium with 2.5% DMSO. Plates were returned to the incubator for 2 hours. After pre-incubating the cells with the test compounds for 2 hours, 20 μL of growth factors at 10× assay concentration diluted in serum starvation media, FGF at 50 ng per mL, or VEGF (R&D systems 293-VE) at 200 ng per mL were added. The final concentration of FGF in the assay was 5 ng per mL and the final concentration of VEGF in the assays was 20 ng per mL. The growth factor free control wells had 20 μL per well of serum starvation media with the same amount of BSA as the wells with growth factors. The plates were returned to the incubator for an additional 22 hours.
After 24 hour exposure to the test compounds, the cells were labeled with BrdU (Roche Biochemicals 1-647-229), by adding 20 μL per well of BrdU labeling reagent that has been diluted (1:100) in serum starvation medium. The plates were then returned to the incubator for 4 hours. The labeling medium was removed by draining the medium onto paper towels. The cells were fixed and DNA denatured by adding 200 μL of fixation/denaturation solution to each well and incubating at room temperature for 45 minutes. The fixation/denaturation solution was drained onto paper towels and to each well was added 100 μL of anti-BrdU-POD and the wells were incubated for 2 hours at room temperature. The antibody solution was removed and the wells were each washed 3–4 times with 300 μl PBS. 100 μL of the TMB substrate solution was added to each well and the wells were incubated at room temperature for 5–8 minutes. The reaction was then stopped by adding 100 μL per well of 1 M phosphoric acid. The plates were read at 450 nm with reference wavelength of 650 nm. The percent inhibition for each test compound was calculated by subtracting the absorbency of the blank (no cells) wells from all wells, then subtracting the division of the average absorbency of each test duplicate by the average of the controls from 1. The final product was then multiplied by 100 (% of inhibition=(1−average absorbency of test duplicate/average of control)100). The IC50 value is the concentration of test compound that inhibits by 50% BrdU labeling, and is a measure of inhibition of cell proliferation. The IC50 is determined from the linear regression of a plot of the logarithm of the concentration versus percent inhibition.

FGFR = target: T1, FGFR; assay: FGFR kinase HTRF assay; format: biochemical; conditions: 10 μM ATP, read-out: IC50 (μM) - Enzyme Inhibition Assays FGFR
T1 construct: fused on or other part: GST tag
Protocol: To determine inhibition of KDR, FGFR, EGFR, and PDGFR activity, kinase assays were conducted using an HTRF (Homogeneous Time Resolved Fluorescence) assay. This assay is described in A. J. Kolb et. al., Drug Discovery Today, 1998, 3(7), p 333.
Kinase activity assays were performed in 96-well polypropylene plates (Falcon) with a total volume of 90 μL in each well. Each well contained 1 μM KDR substrate (Biotin-EEEEYFELVAKKKK), 1 nM activated KDR, and a test compound with one of 8 assay concentrations ranging from 100 μM to […] (1:5 serial dilution). The kinase activity assay was done in the presence of 100 mM HEPES, pH 7.4, 1 mM DTT, 0.1 mM Na2VO4, 25 mM MgCl2, 50 mM NaCl (from KDR stock solution), 1% DMSO (from compound), 0.3 mM ATP (at Km concentration) and 0.02% BSA. The reaction was incubated at 37° C. for 30 minutes. To stop the KDR reaction, 72 μL of reaction mixture was transferred into a STOP plate containing 18 μL of revelation buffer (20 mM EDTA, 50 mM HEPES, pH 7.4, 0.02% BSA, 10 nM Eu-labelled anti-pY antibody (final conc. 2 nM), and 100 nM streptavidin (final conc. 20 nM)). After mixing, 35 μL of solution was transferred into duplicate wells of a 384-well black plate (Costar), and read at 615/665 nm on a Wallac Victor 5 reader.
FGFR, EGFR, and PDGFR activity assays were carried out as described above for the KDR activity assay with the following differences. GST-tagged FGFR enzyme was activated at room temperature for 1 hour in the following activation buffer: 100 mM HEPES, pH 7.4, 50 mM NaCl, 20 mM MgCl2, and 4 mM ATP. The kinase activity assay was performed with 1 μM substrate (Biotin-EEEEYFELV), 1.5 nM activated FGFR, and test compound in the presence of 100 mM HEPES, 1 mM DTT, 0.4 mM MgCl2, 0.4 mM MnCl2, 50 mM NaCl, 1% DMSO, 10 μM ATP (Km=8.5 μM for FGFR), 0.1 mM Na2VO4, and 0.02% BSA, in a total volume of 90 μL. The rest of the assay was performed in the same manner as KDR assay.
Compound IC50 values were determined from duplicate sets of data, and calculated by using Excel and fitting data to equation Y=[(a−b)/{1+(X/c)^d]+b, where a and b are enzyme activity in the presence of no test inhibitor compound and an infinite amount of inhibitor test compound, respectively, c is the IC50 and d is the hill constant of the compound response. The IC50 value is the concentration of test compound that reduces by 50% the enzyme activity under the test conditions described.

SMILES | IC50 (VEGF-stimulated HUVEC) [µM] | IC50 (FGFR) [µM] | melting point [°C]
COc1ccc(N2C(=O)N(c3cccc(C(N)=O)c3)c3nc(Nc4ccccc4)ncc3C2C)c(F)c1 (racemic) [Example 10, (±)-3-[3-(2-Fluoro-4-methoxy-phenyl)-4-methyl-2-oxo-7-phenylamino-3,4-dihydro-2H-pyrimido[4,5-d]pyrimidin-1-yl]-benzamide] | < 10 | < 10 | 282 to 286
COc1ccc(N2C(=O)N([C@H](C)CO)c3nc(Nc4ccccc4)ncc3[C@@H]2C)cc1 [Example 15b, 1-(2-Hydroxy-1-(R)-methyl-ethyl)-3-(4-methoxy-phenyl)-4-(S)-methyl-7-phenylamino-3,4-dihydro-1H-pyrimido[4,5-d]pyrimidin-2-one] | < 10 | < 10 | 195 to 198
COc1ccc(N2C(=O)N(c3ccc(OC)cc3)C(C)c3cnc(Nc4ccccc4)nc32)cc1 (racemic) [Example 4b, (±)-1,3-Bis-(4-methoxy-phenyl)-4-methyl-7-phenylamino-3,4-dihydro-1H-pyrimido[4,5-d]pyrimidin-2-one] | < 10 | < 10 | 228 to 234
COc1ccc(N2C(=O)N(c3cccc(C#N)c3)c3nc(Nc4ccccc4)ncc3C2C)c(F)c1 (racemic) [Example 9b, (±)-3-[3-(2-Fluoro-4-methoxy-phenyl)-4-methyl-2-oxo-7-phenylamino-3,4-dihydro-2H-pyrimido[4,5-d]pyrimidin-1-yl]-benzonitrile] | < 10 | < 10 | 223 to 228
COc1ccc(N2C(=O)N(c3ccccc3)c3nc(Nc4ccccc4)ncc3[C@@H]2C)cc1 (single isomer, unassigned) [Example 3] | < 10 | < 10 | 223 to 236
COc1ccc(N2C(=O)N(c3ccccc3)c3nc(Nc4ccccc4)ncc3C2C)c(F)c1 (racemic) [Example 8d, (±)-3-(2-Fluoro-4-methoxy-phenyl)-4-methyl-1-phenyl-7-phenylamino-3,4-dihydro-1H-pyrimido[4,5-d]pyrimidin-2-one] | < 10 | < 10 | 242 to 250
COc1ccc(N2C(=O)N(c3ccccc3)c3nc(Nc4ccccc4)ncc3C2C)cc1 (racemic) [Example 1g, (±)-3-(4-Methoxy-phenyl)-4-methyl-1-phenyl-7-phenylamino-3,4-dihydro-1H-pyrimido[4,5-d]pyrimidin-2-one] | < 10 | < 10 | 222 to 234
COc1ccc(N2C(=O)N(c3cccc(C(N)=O)c3)c3nc(Nc4ccccc4)ncc3C2C)cc1 (racemic) [Example 6, (±)-3-[3-(4-Methoxy-phenyl)-4-methyl-2-oxo-7-phenylamino-3,4-dihydro-2H-pyrimido[4,5-d]pyrimidin-1-yl]-benzamide] | < 10 | < 10 | 268 to 273
COc1ccc(N2C(=O)N(c3cccc(C#N)c3)c3nc(Nc4ccccc4)ncc3C2C)cc1 (racemic) [Example 5b, (±)-3-[3-(4-Methoxy-phenyl)-4-methyl-2-oxo-7-phenylamino-3,4-dihydro-2H-pyrimido[4,5-d]pyrimidin-1-yl]-benzonitrile] | < 10 | < 10 | 224 to 228

— patent publication US7112676B2, “Pyrimido compounds having antiproliferative activity” (Hoffmann-La Roche Inc., priority 2002, dated 2006)
